Experimental data reported in patent US20250276983A1, “COMPOUNDS AND METHODS FOR MODULATING HER2” (IAMBIC THERAPEUTICS, INC., priority 2022, published 2025).

Experiments:
BaF3_EGFRWT cells = assay: Cell growth inhibition assay, BaF3_EGFRWT; assay type: cell-based; conditions: 72 h, 80 ng/mL recombinant human EGF, 3 days treatment, CellTiterGlo 2.0, read-out: EGFR WT IC50 (nM), cell growth inhibition
wtERBB2 = wtERBB2 (Homo sapiens (Human), UniProt P04626); assay: HotSpot radiometric kinase activity assay, wtERBB2; assay type: biochemical; conditions: 30 nM wtERBB2, 10 μM 33P-ATP, 20 min preincubation, 2 hours, read-out: HER2 WT IC50
Sequence of wtERBB2 (P04626 23-1255): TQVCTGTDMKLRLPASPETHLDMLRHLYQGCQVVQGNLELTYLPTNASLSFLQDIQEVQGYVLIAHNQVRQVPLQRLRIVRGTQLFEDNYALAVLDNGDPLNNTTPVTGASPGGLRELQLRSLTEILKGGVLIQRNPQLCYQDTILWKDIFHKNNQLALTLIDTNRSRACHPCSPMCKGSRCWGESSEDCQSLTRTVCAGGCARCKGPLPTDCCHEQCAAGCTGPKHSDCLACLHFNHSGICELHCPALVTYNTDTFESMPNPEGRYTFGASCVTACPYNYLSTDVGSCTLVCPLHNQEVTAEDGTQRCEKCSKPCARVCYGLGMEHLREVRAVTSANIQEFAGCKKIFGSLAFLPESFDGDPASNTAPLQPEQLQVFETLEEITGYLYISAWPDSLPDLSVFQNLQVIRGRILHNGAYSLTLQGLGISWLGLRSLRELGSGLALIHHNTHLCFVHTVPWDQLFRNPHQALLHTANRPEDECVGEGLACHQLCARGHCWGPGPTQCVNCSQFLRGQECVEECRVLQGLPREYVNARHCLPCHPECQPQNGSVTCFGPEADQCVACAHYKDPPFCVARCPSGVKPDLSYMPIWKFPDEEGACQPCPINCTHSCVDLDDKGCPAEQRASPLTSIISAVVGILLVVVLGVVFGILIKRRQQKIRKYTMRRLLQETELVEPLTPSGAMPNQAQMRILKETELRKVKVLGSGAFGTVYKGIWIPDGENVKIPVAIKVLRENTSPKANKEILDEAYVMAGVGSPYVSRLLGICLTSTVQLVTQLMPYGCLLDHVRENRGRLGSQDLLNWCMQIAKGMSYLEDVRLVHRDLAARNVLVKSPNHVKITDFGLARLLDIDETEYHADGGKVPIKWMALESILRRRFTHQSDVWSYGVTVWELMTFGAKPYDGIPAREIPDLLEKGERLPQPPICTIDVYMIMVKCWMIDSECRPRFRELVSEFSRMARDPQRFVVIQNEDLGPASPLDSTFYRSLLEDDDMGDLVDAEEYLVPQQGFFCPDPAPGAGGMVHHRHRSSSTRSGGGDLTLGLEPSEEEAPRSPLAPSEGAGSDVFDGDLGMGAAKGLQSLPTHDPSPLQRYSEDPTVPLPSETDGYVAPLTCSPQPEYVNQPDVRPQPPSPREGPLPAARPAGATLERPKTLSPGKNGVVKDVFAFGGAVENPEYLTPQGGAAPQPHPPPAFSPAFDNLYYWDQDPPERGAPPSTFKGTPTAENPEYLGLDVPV
Experimental: The purpose of the wtERBB2, ERBB2-A775_G776insYVMA (ERBB2YVMA), wtEGFR biochemical assay was to evaluate the inhibition (% inhibition and IC50 values) of the small molecule inhibitors by using the “HotSpot” radiometric kinase activity assay. HotSpot assays monitor the […] of kinase substrate by the radioactive gamma phosphate of adenosine triphosphate (33P-ATP) during biochemical reactions. HotSpot assays was performed in steps upon completion of the kinase reaction: deposition of a reaction mixture aliquot onto P81 ion exchange paper, extensive washing of the aforementioned P81 paper using phosphoric acid to remove unbound radiolabeled 33P-ATP from the P81 paper, and finally visualization and quantification of the dried P81 paper utilizing a phosphoimager. […] Typical reaction solutions (10 μL final reaction volume) contained the following buffer conditions: 20 mM Hepes (pH 7.5), 10 mM MgCl2, 1 mM EGTA, 0.01% Brij35, 0.02 mg/mL BSA, 0.1 mM Na3VO4, 2 mM DTT, 1% DMSO. The assay was primed by preparing a fresh 0.2 mg/mL solution of pEY (Sigma Cat: P7244) substrate in the reaction buffer and supplementing that solution with […] of MnCl2 as substrate cofactor (Sigma Cat: M9522). The kinase of interest was then added to the solution at the appropriate concentration (30 nM wtERBB2 from, or 20 nM ERBB2YVMA, or 4 nM wtEGFR) and gently mixed prior to delivery of compound in 100% DMSO by acoustic dispensing (Beckman Echo550). Compound, Kinase, and substrate were allowed to incubate for 20 min at room temperature prior to the initiation of the reaction by addition of 33P-ATP (PerkinElmer Cat: NEG602, final conc 10 μM). […] IC50 determinations were made from a plot of kinase activity as a function of inhibitor concentration fit to the 4-parameter IC50 equation with the enzyme concentration held constant using GraphPad Prism (San Diego).

BaF3_HER2YVMA cells = assay: Cell growth inhibition assay, BaF3_HER2YVMA; assay type: cell-based; conditions: 72 h, BaF3_HER2YVMA cells, 3 days treatment, CellTiterGlo 2.0; read-out: HER2-YVMA IC50 (nM), cell growth inhibition
BaF3_HER2WT cells = assay: Cell growth inhibition assay, BaF3_HER2WT; assay type: cell-based; conditions: 72 h, 3 days treatment, CellTiterGlo 2.0, read-out: HER2 WT IC50 (nM), cell growth inhibition

Row | SMILES | IC50 (BaF3_EGFRWT cells) | IC50 (wtERBB2) | IC50 (BaF3_HER2YVMA cells) | IC50 (BaF3_HER2WT cells)
1 | Cc1cc(Nc2ncnn3ccc(C4CCCN(C(=O)/C=C/CN(C)C)CC4)c23)ccc1Oc1ccn2ncnc2c1 (stereo not shown) [Example 93, (E)-1-(4-(4-((4-([1,2,4]triazolo[1,5-a]pyridin-7-yloxy)-3-methylphenyl)amino)pyrrolo[2,1-f][1,2,4]triazin-5-yl)azepan-1-yl)-4-(dimethylamino)but-2-en-1-one] | 1500 to 5000 nM | < 200 nM | < 200 nM | < 200 nM
2 | Cc1cc(Nc2ncnn3ccc(N4CC5(CCN(C(=O)/C=C/CN(C)C)C5)C4)c23)ccc1Oc1ccn2ncnc2c1 [Example 156, (2E)-4-(dimethylamino)-1-(2-{4-[(3-methyl-4-{[1,2,4]triazolo[1,5-a]pyridin-7-yloxy}phenyl)amino]pyrrolo[2,1-f][1,2,4]triazin-5-yl}-2,6-diazaspiro[3.4]octan-6-yl)but-2-en-1-one] | 1500 to 5000 nM | < 200 nM | 1500 to 5000 nM | 200 to 500 nM
3 | Cc1cc(Nc2ncnn3ccc(C4CCN(C(=O)CCCN(C)C)CC4)c23)ccc1Oc1ccn2ncnc2c1 [Example 23, 1-(4-(4-((4-([1,2,4]triazolo[1,5-a]pyridin-7-yloxy)-3-methylphenyl)amino)pyrrolo[2,1-f][1,2,4]triazin-5-yl)piperidin-1-yl)-4-(dimethylamino)butan-1-one] | 1500 to 5000 nM | < 200 nM | 1500 to 5000 nM | 500 to 1500 nM
4 | C=CC(=O)N1CC2(C1)CN(c1ccn3ncnc(Nc4ccc(Oc5ccn6ncnc6c5)c(C)c4)c13)C2 [Example 16, 1-(6-(4-((4-([1,2,4]triazolo[1,5-a]pyridin-7-yloxy)-3-methylphenyl)amino)pyrrolo[2,1-f][1,2,4]triazin-5-yl)-2,6-diazaspiro[3.3]heptan-2-yl)prop-2-en-1-one] | 1500 to 5000 nM | < 200 nM | 500 to 1500 nM | 200 to 500 nM
5 | C=CC(=O)N1CCC(c2ccn3ncnc(Nc4ccc(Oc5ccn6ncnc6c5)c(C)c4)c23)C1 (stereo not shown) [Example 11, 1-(3-(4-((4-([1,2,4]triazolo[1,5-a]pyridin-7-yloxy)-3-methylphenyl)amino)pyrrolo[2,1-f][1,2,4]triazin-5-yl)pyrrolidin-1-yl)prop-2-en-1-one] | 1500 to 5000 nM | < 200 nM | < 200 nM | < 200 nM
6 | C=CC(=O)NCCn1cc(-c2ccn3ncnc(Nc4ccc(Oc5ccn6ncnc6c5)c(C)c4)c23)cn1 [Example 13, N-(2-(4-(4-((4-([1,2,4]triazolo[1,5-a]pyridin-7-yloxy)-3-methylphenyl)amino)pyrrolo[2,1-f][1,2,4]triazin-5-yl)-1H-pyrazol-1-yl)ethyl)acrylamide] | 1500 to 5000 nM | < 200 nM | 200 to 500 nM | < 200 nM
7 | Cc1cc(Nc2ncnn3ccc([C@H]4CCN(C(=O)/C=C/CN(C)C)C4)c23)ccc1Oc1ccn2ncnc2c1 [Example 100, (R,E)-1-(3-(4-((4-([1,2,4]triazolo[1,5-a]pyridin-7-yloxy)-3-methylphenyl)amino)-pyrrolo[2,1-f]1,2,4-triazin-5-yl)pyrrolidin-1-yl)-4-(dimethylamino)but-2-en-1-one] |  | < 200 nM |  | 
8 | Cc1cc(Nc2ncnn3ccc([C@@H]4CCCN(C(=O)/C=C/CN(C)C)C4)c23)ccc1Oc1ccn2ncnc2c1 (single isomer, unassigned) [Example 107] |  | < 200 nM |  | 
9 | Cc1cc(Nc2ncnn3ccc([C@H]4CCCN(C(=O)/C=C/CN(C)C)C4)c23)ccc1Oc1ccn2ncnc2c1 [Example 108, (R,E)-1-(3-(4-((4-([1,2,4]triazolo[1,5-a]pyridin-7-yloxy)-3-methylphenyl)amino)-pyrrolo[2,1-f][1,2,4]-triazin-5-yl)piperidin-1-yl)-4-(dimethylamino)but-2-en-1-one] |  | < 200 nM |  | 
10 | Cc1cc(Nc2ncnn3ccc([C@H]4CCCN(C(=O)/C=C/CN(C)C)CC4)c23)ccc1Oc1ccn2ncnc2c1 [Example 110, (S,E)-1-(4-(4-((4-([1,2,4]triazolo[1,5-a]pyridin-7-yloxy)-3-methylphenyl)amino)pyrrolo[2,1-f][1,2,4]triazin-5-yl)azepan-1-yl)-4-(dimethylamino)but-2-en-1-one] |  | < 200 nM |  | 
